Assay results: US12227480B1 (priority 2023, dated 2025)

What was measured:
[1] = test system: Mycobacterium tuberculosis XDR strain; assay: microbe, parasite or virus in culture; type: cell-based; details: read-out: Anti-tubercular activity against Mycobacterium tuberculosis (MIC), XDR
[2] = test system: Mycobacterium tuberculosis MDR strain; assay: microbe, parasite or virus in culture; type: cell-based; details: read-out: Anti-tubercular activity against Mycobacterium tuberculosis (MIC), MDR

Structure (SMILES): Cc1cc[n+](CC(=O)c2ccc(F)cc2)cc1.[Br-] [Compound 3d, 1-(2-(4-Fluorophenyl)-2-oxoethyl)-4-methylpyridin-1-ium bromide]
- MIC [1]: 32 µg/mL
- MIC [2]: 8 µg/mL
